Laboratory results: patent US7691416B2, “Methods of treating vascular disease” (priority 2002, dated 2010)

System: p38 MAPK
Test: Western blot of phosphorylated p38 MAPK in SMC
Assay type: cell-based, mouse
Source text: Animals. Male (250-350 g) Brown Norway rats (RT1^n) were used as aortic graft donors and male (250-350 g) Lewis rats (RT11) as recipients. Dawley (400-450 g) rats were used in the balloon injury model. Adult male C57BL/6, C57/S129, p21^−/− and p53^−/− null mice were purchased from Jackson Laboratory (Bar Harbor, Me.). mkk3^(−/−) null mice were generated as described Lu et al. (EMBO. 18:1845-1857 (1999)). The inos^−/− and enos^−/− mice were bred at the University of Pittsburgh. Aortic transplant model. Aortic transplantation was performed as described in Shimizu et al. (Nat. Med. 7:738-741 (2001)). Briefly, 3 to 4 cm of descending aorta was harvested from the donor and implanted between the renal arteries and the aortic bifurcation of the recipient. Both edges of the native abdominal aorta were ligated. Balloon injury model. Balloon angioplasty was carried out as described in Murakami et al. (Atherosclerosis 157:361-368 (2001)). Briefly, a 2 Fr. arterial embolectomy catheter (Baxter, Chicago, Ill.) was inserted into the common carotid artery, and injury was created by inflating the balloon to 5 atmospheres of pressure for 5 minutes. The arteries were flushed and the external carotid artery was ligated, ensuring return of blood flow through the common and internal carotid arteries. Injury of the vessel wall and subsequent pathological analysis was made in a manner that was blinded to the treatment group. CO exposure. CO was delivered to animals as described in Otterbein et al. (Nat. Med. 6:422-428 (2000)). Graft donors and recipients were exposed to CO (250 ppm) for two days before transplantation and for 56 days immediately following transplantation. In the balloon injury model, rats received either no pretreatment or were exposed to CO (250 ppm) for one hour prior to injury. Following surgery rats were housed in room air for two weeks. Cells. Primary mouse and rat smooth muscle cells (SMC) were isolated and cultured as described in Laubach et al. (Proc Natl Acad Sci USA 92:10688-9 (1995)). Mouse SMC isolated from HO-1^−/− mice were obtained as described in Duckers et al. (Nat. Med. 7:693-698 (2001)). Cell treatment and reagents. Guanylate cyclase inhibitor 1H(1,2,4) oxadiazolo(4,3-a)quinoxalin-1 (ODQ; Calbiochem-Novabiochem, San Diego, Calif.; 10-100 μM) and p38 MAPK inhibitor pyridinyl imidazol SB203580 (Calbiochem; 5-20 μM) were dissolved in DMSO. […] [^3H]thymidine incorporation was measured by scintillation spectroscopy and presented as mean counts/min/well. […] Areas from eight to ten captured images were calculated using digital imaging software as number of pixels corresponding to those areas. Twenty-four to forty-eight sections from each group were statistically analyzed with SPSS software version 10. […]

## [C-]#[O+] [CO, carbon monoxide]
CO 250 ppm
  Time of peak p38 MAPK phosphorylation/activation after exposure: four
SMC exposed to CO (250 ppm)
  p38 MAPK phosphorylation/activation: activated
